Data taken from patent publication US8552052B2, “Use of diindolylmethane-related indoles for the treatment and prevention of respiratory syncytial virus associated conditions” (BioResponse, L.L.C., priority 2004, dated 2013).

Tested on: RSV A2
Test: RSV infection in cyclophosphamide pre-treated mice (pulmonary titer, histology)
Assay type: in vivo
Settings: cyclophosphomide pre-treated mice; vs vehicle treated placebo group
Text: Another in vivo model of RSV infection has been developed using mice treated with cylphosphamide to induce immune deficiency and create a standardized receptive host for experimental infection (Sudo et al., 1999, Antivir Chem Chemother. 10:135-9). The technique provides for quantitation of pulmonary viral load following induced infection. This model can be used to assess the impact of daily intraperitoneal injections of DIM and/or an EGFR inhibitor drug (Gefitinib or Erlotinib) on in vivo RSV replication and induced pathology.
Alternatively, mice are treated intraperitoneally with 100 mg of cyclophosphamide (CYP) per kg of body weight 5 days before virus inoculation. The mice are weighed, anesthetized with sodium pentobarbital (50 mg/kg), and inoculated intranasally with approximately 10^5 PFU of RSV A2 in 50 μl (day 0). […]
Alternatively, the removed lungs are homogenized with glass homogenizers with a Teflon pestle (Ikemoto Scientific Technology Co., Ltd., Tokyo, Japan) in 4 ml of Hanks balanced salt solution supplemented with 0.218 M sucrose, 4.4 mM glutamate, 3.8 mM KH2PO4, and 3.2 mM K2HPO4 as described previously (Piazza et al., 1993, J. Virol. 67:1503-1510). […] The numbers of RSV plaques are counted.
Histologic methods and evaluation. […] The stained sections are coded by number and are evaluated blind as to the previous treatment. […]

## c1ccc2c(Cc3c[nH]c4ccccc34)c[nH]c2c1 [DIM, 3,3′-diindolylmethane]
  pathology score on histologic examination: reduced pathology score
  pulmonary RSV titers: reduction of pulmonary RSV titers
